Source: ChEMBL document CHEMBL1201862, “PubChem BioAssay data set” (2004)
The source made the active and inactive calls.

Assays:
ORF 73 = target: T1, ORF 73 (Human herpesvirus 8, UniProt O40947); assay: inhibitors of C-LANA binding to LBS DNA, dose response, biochemical, fluorescence polarization, cherry-picked samples (AID 504725); design: species or system Human gammaherpesvirus 8;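 note: fluorescence polarization of a labeled DNA duplex reporting LANA DNA binding; potency is for inhibitors that block LANA binding to the DNA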
T1 sequence (O40947 whole entry): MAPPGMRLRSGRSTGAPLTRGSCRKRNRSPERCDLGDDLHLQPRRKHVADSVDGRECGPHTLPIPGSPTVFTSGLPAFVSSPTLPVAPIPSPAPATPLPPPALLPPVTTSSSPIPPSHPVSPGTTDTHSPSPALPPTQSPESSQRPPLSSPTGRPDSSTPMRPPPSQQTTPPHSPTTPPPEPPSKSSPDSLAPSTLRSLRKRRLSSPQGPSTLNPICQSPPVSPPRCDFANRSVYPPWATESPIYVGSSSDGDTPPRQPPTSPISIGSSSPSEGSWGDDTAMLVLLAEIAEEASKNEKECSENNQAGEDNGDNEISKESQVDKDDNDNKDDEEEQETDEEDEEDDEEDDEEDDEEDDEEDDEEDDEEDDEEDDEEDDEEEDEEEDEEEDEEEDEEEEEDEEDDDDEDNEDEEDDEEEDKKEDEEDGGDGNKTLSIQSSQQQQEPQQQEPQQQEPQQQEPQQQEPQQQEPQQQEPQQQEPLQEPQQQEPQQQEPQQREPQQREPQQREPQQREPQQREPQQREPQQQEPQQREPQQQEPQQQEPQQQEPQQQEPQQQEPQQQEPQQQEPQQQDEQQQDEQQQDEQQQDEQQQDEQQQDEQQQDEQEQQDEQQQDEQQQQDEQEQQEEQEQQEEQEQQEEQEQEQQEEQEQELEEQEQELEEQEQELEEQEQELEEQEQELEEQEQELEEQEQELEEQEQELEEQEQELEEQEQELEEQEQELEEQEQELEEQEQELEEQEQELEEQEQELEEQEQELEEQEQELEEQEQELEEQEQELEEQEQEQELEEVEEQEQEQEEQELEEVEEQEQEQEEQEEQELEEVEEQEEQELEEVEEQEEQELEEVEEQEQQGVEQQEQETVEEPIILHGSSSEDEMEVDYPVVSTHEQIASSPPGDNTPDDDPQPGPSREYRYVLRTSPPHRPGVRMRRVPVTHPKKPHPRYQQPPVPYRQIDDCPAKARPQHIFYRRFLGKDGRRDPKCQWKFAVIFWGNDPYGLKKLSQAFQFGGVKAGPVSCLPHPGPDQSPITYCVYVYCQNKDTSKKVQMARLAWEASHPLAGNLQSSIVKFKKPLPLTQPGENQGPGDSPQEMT

[1] = target: T2, Endoribonuclease toxin MazF (Escherichia coli K-12, UniProt P0AE70); assay: MazF toxin RNase activators, dose response, biochemical, fluorescence, single-stranded RNA substrate, uHTS hits (AID 588481); format: functional
T2 sequence (P0AE70 whole entry): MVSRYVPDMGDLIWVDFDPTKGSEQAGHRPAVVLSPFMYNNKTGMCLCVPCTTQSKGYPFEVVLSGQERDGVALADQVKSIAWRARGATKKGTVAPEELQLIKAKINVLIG

[2] = target: UDP-galactopyranose mutase (Mycobacterium tuberculosis, UniProt P9WIQ1); assay: Inhibitors of Mycobacterium tuberculosis UDP-galactopyranose mutase (UGM) enzyme Measured in Biochemical System Using Plate Reader - 2105-02_Inhibitor_Dose_CherryPick_Activity. [Related pubchem assays (depositor defined):AID504439]
UDP-galactopyranose mutase, sequence (P9WIQ1 whole entry): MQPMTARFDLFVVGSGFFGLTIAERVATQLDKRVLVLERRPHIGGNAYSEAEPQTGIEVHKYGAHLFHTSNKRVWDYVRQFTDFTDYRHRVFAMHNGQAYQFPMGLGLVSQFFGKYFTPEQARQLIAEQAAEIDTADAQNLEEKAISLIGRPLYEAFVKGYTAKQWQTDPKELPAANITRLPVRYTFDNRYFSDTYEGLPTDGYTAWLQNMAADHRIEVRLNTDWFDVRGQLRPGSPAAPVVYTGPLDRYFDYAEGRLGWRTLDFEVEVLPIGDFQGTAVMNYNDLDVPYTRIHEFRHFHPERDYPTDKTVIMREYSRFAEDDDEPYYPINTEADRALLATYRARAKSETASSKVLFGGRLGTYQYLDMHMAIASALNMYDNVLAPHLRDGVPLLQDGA

HeLa = assay: HeLa cell cytotoxicity, dose response, cytotoxicity control, 24 h, cherry-picked samples (AID 504726); format: functional, cell-based; settings: Homo sapiens;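 note: potency for cytotoxicity as loss of luminescence signal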
Keap1/Nrf2 = Keap1/Nrf2 (Homo sapiens, UniProt Q14145); assay: Keap1-Nrf2 protein-protein interaction inhibitors, dose response, biochemical, fluorescence polarization, cherry-picked samples (AID 588683)
Keap1/Nrf2, sequence (Q16236 whole entry): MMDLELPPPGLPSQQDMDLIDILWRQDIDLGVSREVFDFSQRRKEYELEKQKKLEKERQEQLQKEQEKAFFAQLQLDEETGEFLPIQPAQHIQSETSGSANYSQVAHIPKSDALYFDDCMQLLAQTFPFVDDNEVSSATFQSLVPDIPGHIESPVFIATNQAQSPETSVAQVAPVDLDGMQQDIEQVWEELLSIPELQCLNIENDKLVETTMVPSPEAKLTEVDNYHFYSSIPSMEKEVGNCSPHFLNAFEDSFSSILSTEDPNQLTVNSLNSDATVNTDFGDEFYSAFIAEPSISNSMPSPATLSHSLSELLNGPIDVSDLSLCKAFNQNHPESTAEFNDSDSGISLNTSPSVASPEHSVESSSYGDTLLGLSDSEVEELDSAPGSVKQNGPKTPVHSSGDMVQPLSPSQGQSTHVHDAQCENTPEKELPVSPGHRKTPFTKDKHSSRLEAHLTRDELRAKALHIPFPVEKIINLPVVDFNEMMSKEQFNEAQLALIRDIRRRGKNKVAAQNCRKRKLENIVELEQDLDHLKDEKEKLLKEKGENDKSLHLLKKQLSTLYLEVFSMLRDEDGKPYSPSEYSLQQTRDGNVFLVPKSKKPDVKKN
Keap1/Nrf2, sequence (Q14145 whole entry): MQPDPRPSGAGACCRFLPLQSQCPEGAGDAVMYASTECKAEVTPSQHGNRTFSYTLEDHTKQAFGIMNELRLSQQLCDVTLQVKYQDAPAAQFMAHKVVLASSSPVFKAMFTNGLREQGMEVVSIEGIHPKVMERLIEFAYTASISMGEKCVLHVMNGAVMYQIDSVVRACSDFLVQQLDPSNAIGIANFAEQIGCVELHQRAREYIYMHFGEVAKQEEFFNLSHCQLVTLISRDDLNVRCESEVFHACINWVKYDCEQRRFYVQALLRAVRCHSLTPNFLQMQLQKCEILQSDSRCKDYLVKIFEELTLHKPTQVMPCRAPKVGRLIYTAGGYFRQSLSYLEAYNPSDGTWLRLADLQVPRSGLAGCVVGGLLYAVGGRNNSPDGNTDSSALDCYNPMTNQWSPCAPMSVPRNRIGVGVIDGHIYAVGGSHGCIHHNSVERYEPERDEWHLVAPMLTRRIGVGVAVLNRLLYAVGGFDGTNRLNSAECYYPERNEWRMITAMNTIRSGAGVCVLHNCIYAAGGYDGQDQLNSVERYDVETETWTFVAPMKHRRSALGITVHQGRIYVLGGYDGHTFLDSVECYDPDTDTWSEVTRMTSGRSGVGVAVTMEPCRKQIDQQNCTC

[3] = target: T2, Endoribonuclease toxin MazF; assay: fluorescent RNA oligo signal without MazF, dose response, counter-screen for MazEF activator project, biochemical, fluorescence, single-stranded RNase substrate (AID 588502); format: functional
HEK293 [4] = assay: cells; settings: Homo sapiens
[5] = growth suppression of beta-catenin-knockout colon cells, dose response, cell-based, HCT116, human colon tumor (AID 1045); format: functional;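 note: HCT116 colon tumor cells with beta catenin knocked out; cells exposed to compound for 60 hours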
HEK293 [6] = assay: cells; settings: Homo sapiens; remark: listed apart in the source
[7] = growth suppression of PTEN-null colon cells, dose response, cell-based, HCT116 PTEN knockout (AID 1047); format: functional;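 note: HCT116 colon tumor cells with PTEN knocked out; cells exposed to compound for 60 hours before readout; potency for loss of cell viability measured by luminescence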
[8] = target: T3, Serine/threonine-protein phosphatase (Candida dubliniensis (strain CD36 / CBS 7987 / NCPF 3949 / NRRLY-17841) (Yeast), UniProt B9W6M3); assay: Fluorescence Cell-Based Secondary Assay to Identify Inhibitors of Calcineurin. [Related pubchem assays (depositor defined):AID1979, AID2007]; format: functional
T3 sequence (B9W6M3 whole entry): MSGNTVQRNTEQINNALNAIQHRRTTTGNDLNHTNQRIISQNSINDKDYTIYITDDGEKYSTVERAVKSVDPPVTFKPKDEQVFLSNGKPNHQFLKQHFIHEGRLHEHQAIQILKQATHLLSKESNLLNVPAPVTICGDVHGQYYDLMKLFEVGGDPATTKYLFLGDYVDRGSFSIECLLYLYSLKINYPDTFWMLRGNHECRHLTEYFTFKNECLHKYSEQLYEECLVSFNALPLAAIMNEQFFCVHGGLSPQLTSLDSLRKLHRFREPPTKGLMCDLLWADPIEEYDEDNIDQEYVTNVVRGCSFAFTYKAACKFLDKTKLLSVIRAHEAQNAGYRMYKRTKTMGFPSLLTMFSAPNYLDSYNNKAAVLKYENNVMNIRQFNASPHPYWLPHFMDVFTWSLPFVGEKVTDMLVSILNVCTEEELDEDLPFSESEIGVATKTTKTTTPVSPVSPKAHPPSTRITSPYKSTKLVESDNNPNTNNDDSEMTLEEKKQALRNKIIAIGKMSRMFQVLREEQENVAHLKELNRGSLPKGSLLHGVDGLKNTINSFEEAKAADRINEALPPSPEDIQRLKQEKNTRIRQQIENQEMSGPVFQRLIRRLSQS

[9] = C. albicans growth with fluconazole, confirmation, fluorescence, retest (AID 2467); format: functional, cell-based
[10] = NIH-3T3 fibroblast cytotoxicity, dose response, cytotoxicity control, cell-based, fluorescence, Alamar Blue, secondary assay (AID 2327); format: functional;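 note: NIH-3T3 mouse fibroblasts cultured with fluconazole at 8 µg/mL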
[11] = cytotoxicity toward NIH3T3 fibroblasts, dose response, counter-screen, cell-based, ATP luminescence, mouse fibroblasts (AID 2010); format: functional;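 note: cells exposed to compound for about 90 hours before reading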
Vero = assay: cells; format: functional; settings: Chlorocebus sabaeus
[12] = target: Heat shock protein HSP 90-alpha (Homo sapiens, UniProt P07900); format: functional, organism-based
[13] = inhibitors of intracellular T. cruzi replication, confirmation, NIH3T3 host cells, beta-gal luminescence (AID 2044); format: functional, cell-based;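 note: intracellular parasites grown in NIH/3T3 mouse fibroblasts as host cells; luminescent beta-galactosidase reporter signal from transgenic T. cruzi replicating inside host cells; inhibitors lower the luminescence signal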
[14] = target: T3, Serine/threonine-protein phosphatase; assay: calcineurin pathway inhibitors in yeast reporter, dose response, S. cerevisiae, CDRE-lacZ, luminescence, secondary (AID 2388); format: functional, cell-based;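 note: yeast reporter cells carrying a calcineurin-responsive lacZ construct stimulated with calcium chloride; luminescent beta-galactosidase reporter signal in whole cells rather than isolated phosphatase activity; potency for inhibition where a drop in reporter signal means calcineurin blockade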
INS1 = assay: beta cell apoptosis inhibitors, cytokine rescue, dose response, luminescence, retest (AID 449756); format: functional, cell-based; settings: Rattus norvegicus;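 note: cell death triggered by IL-1 beta plus TNF-alpha plus IFN-gamma mixture; protective hits raise ATP signal compared with cytokine alone wells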
[15] = microbe, parasite or virus in culture; format: functional; settings: Mycobacterium tuberculosis
[16] = target: ATP-dependent molecular chaperone HSP82 (Candida albicans (strain WO-1) (Yeast), UniProt C4YTQ8); assay: loss of DOC-induced GRE-beta-galactosidase reporter signal, dose response, Hsp90 inhibitor project, S. cerevisiae, luminescence (AID 2400); format: functional, cell-based;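 note: beta-galactosidase luminescence from glucocorticoid response element reporter as proxy for Hsp90 function; inhibitor potency where signal loss means Hsp90 inhibition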
ATP-dependent molecular chaperone HSP82, sequence (C4YTQ8 whole entry): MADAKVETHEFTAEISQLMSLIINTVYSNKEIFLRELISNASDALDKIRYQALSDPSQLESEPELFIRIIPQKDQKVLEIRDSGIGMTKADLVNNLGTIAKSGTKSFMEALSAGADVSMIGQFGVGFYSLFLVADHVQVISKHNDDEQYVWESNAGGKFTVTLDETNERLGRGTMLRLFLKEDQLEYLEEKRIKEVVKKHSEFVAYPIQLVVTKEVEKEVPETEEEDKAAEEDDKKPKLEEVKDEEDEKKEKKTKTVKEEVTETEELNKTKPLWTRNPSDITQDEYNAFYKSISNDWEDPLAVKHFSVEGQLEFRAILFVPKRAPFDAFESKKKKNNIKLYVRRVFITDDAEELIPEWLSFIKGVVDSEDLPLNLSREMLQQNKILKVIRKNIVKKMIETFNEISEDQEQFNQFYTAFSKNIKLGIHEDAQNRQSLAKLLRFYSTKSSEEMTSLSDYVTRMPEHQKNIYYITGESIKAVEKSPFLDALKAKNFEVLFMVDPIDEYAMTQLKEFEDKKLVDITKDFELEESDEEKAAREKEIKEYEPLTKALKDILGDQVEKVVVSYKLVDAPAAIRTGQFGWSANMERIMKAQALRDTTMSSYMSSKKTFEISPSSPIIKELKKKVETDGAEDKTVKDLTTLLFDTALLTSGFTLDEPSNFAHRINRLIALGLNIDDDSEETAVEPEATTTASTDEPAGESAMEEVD

Streptococcus = assay: Group A Streptococcus viability loss, dose response, counter-screen for streptokinase expression inhibitor project, luminescence, BacTiterGlo (AID 1915); format: functional, organism-based;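 note: potency for reduction of bacterial viability or growth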
[17] = system: Streptococcus sp. 'group A'; assay: growth inhibition of control SK(-) GAS strain, dose response, counter-screen for streptokinase expression inhibitor project, luminescence, kanamycin, BacTiterGlo, confirmation (AID 1900); format: functional, organism-based
HEK293 [18] = assay: cytotoxicity in HEK293T NF-kB-Luc cells, SAR follow-up, cytotoxicity control for NF-kB activator project, cell-based, resazurin fluorescence (AID 493251); format: functional; settings: Homo sapiens
HEK293 [19] = assay: SAR Analysis of small molecule inhibitors of B-cell specific antigen receptor-induced NF-kB activation in a HEK-293T cell line using a luminescence assay - Set 2. [Related pubchem assays (depositor defined):AID435022, AID435025, AID489021]; format: functional, cell-based; settings: Homo sapiens
Jurkat [20] = assay: SAR Analysis of small molecule inhibitors of […] specific antigen receptor-induced NF-kB activation in a Jurkat cell line using a luminescence assay - Set 3. [Related pubchem assays (depositor defined):AID435022, AID435025, AID465]; format: functional, cell-based; settings: Homo sapiens
[21] = target: T4, Type-1 angiotensin II receptor (Homo sapiens, UniProt P30556); assay: AT1 receptor antagonists, dose response, selectivity assay for APJ receptor antagonist project, cell-based, uHTS hits (AID 463214); format: functional;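 note: antagonist potency against angiotensin II stimulated AT1 response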
T4 sequence (P30556 whole entry): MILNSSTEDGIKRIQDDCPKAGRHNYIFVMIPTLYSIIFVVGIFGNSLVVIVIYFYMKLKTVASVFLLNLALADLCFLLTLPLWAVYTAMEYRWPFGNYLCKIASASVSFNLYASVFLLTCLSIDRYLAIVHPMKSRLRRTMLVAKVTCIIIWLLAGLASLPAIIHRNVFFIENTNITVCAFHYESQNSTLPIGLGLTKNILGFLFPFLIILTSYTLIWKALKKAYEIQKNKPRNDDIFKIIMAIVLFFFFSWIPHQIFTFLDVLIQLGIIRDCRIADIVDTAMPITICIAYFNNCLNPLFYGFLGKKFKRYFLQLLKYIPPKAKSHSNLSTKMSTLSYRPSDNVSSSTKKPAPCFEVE

[22] = target: E3 ubiquitin-protein ligase Mdm2 (Homo sapiens, UniProt Q00987); assay: enhancers of MDM2-luciferase reporter signal, concentration-effect titration, project on inhibitors of MDM2 ubiquitin ligase, cellular assay, luminescent readout, 384-well plate format (AID 1394); format: functional;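 note: MDM2 E3 inhibitors raise luminescence so EC50 is for signal enhancement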
E3 ubiquitin-protein ligase Mdm2, sequence (Q00987 whole entry): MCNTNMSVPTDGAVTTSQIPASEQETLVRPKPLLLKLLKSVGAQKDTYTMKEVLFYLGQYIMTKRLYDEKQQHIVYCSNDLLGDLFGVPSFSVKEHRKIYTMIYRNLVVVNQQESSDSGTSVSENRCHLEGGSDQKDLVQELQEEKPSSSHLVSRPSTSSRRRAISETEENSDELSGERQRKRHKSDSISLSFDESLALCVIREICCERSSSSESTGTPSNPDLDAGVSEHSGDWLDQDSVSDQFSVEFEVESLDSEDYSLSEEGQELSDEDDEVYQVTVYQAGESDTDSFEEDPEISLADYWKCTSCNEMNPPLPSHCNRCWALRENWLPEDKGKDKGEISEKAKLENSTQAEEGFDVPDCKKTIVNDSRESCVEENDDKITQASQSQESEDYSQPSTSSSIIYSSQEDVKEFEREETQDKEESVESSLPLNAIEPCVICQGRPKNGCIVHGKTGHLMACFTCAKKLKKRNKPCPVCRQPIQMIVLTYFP

[23] = cytotoxicity in HEK-293T NF-kB-Luc cells, dose response, cytotoxicity control for B/T-cell NF-kB inhibitor project, cell-based, uHTS hits (AID 489019); format: functional;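 note: IC50 reflects cytotoxicity as loss of cell viability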
[24] = target: G-protein coupled receptor 55 (Homo sapiens, UniProt Q9Y2T6); assay: GPR55 antagonists blocking LPI-driven arrestin recruitment, primary screen, imaging, U2OS, beta-arrestin-GFP, LPI agonist (AID 2013); format: functional;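 note: antagonist potency measured as reduced agonist-driven arrestin aggregation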
G-protein coupled receptor 55, sequence (Q9Y2T6 whole entry): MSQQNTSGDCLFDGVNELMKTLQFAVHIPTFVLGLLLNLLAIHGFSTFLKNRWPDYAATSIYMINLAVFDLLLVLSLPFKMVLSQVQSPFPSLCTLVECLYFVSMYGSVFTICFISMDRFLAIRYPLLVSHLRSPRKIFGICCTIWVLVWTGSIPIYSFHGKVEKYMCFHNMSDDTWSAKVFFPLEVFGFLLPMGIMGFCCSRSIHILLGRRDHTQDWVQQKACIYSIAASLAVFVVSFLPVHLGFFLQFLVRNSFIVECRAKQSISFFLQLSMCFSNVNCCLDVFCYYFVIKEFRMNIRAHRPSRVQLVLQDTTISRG

Paired box protein Pax-8 = Paired box protein Pax-8 (Homo sapiens, UniProt Q06710); assay: inhibitors of PAX8-driven TPO luciferase reporter, dose response, RMG-I cells, cherry-pick (AID 687027); format: functional, cell-based;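 note: luciferase reporter driven by Pax8 target thyroperoxidase promoter measured by SteadyGlo luminescence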
Paired box protein Pax-8, sequence (Q06710 whole entry): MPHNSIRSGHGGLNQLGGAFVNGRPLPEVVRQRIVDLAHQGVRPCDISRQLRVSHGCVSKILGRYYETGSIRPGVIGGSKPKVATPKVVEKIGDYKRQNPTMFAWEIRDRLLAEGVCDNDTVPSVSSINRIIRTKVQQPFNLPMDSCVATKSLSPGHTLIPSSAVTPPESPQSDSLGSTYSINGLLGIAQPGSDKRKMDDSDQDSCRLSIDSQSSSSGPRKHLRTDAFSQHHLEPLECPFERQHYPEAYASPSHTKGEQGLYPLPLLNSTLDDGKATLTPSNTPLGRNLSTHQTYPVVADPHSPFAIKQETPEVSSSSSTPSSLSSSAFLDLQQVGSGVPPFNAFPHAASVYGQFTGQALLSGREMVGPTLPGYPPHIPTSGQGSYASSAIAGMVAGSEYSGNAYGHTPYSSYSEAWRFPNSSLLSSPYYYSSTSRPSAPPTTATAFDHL

Beta-galactosidase = Beta-galactosidase (Escherichia coli, UniProt Q8VNN2); assay: PubChem AID 485352; format: functional
Beta-galactosidase, sequence (Q8VNN2 whole entry): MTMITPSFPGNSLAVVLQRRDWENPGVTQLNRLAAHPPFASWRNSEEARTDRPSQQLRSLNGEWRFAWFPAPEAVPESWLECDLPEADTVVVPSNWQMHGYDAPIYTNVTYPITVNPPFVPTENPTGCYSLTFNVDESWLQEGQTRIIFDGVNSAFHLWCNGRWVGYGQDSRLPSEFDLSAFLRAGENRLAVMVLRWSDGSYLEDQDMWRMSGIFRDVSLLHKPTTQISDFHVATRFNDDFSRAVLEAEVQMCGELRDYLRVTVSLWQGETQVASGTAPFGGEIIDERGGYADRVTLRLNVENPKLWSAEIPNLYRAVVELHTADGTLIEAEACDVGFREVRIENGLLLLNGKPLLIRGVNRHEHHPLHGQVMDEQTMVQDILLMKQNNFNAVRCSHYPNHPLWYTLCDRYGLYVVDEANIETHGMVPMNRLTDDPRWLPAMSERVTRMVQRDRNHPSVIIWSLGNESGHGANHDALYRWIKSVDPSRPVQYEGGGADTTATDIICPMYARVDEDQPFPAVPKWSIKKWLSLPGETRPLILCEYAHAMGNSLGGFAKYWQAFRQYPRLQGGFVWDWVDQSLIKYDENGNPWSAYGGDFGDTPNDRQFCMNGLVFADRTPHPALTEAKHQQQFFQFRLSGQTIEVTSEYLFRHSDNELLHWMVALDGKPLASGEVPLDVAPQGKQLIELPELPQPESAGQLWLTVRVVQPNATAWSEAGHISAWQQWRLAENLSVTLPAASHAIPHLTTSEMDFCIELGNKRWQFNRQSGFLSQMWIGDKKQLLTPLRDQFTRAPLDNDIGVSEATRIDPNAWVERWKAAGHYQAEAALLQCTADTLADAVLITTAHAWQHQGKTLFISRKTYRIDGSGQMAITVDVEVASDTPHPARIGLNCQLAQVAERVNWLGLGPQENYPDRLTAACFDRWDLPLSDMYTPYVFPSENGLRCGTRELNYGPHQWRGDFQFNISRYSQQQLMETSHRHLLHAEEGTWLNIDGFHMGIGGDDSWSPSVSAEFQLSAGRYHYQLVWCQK

Jurkat [25] = assay: antigen receptor-induced NF-kB inhibitors, dose response, Jurkat, luciferase reporter, luminescence, B- and T-cell (AID 489004); format: functional, cell-based; settings: Homo sapiens;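 note: NF-kB luciferase reporter Jurkat cells stimulated with PMA plus ionomycin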

Question: Which AC50 (ORF 73) does the source give for `Cn1nc(-c2ccccc2)c2nc3ccccc3nc21` here?
Answer: 42.5 µM (active)

Question: What about the EC50 [1] of the same molecule?
Answer: > 99 µM (inactive)

Question: What about the AC50 [2] of the same molecule?
Answer: 11.3 µM (active)

Question: And the AC50 (HeLa)?
Answer: 44.5 µM (active)

Question: And the AC50 (Keap1/Nrf2)?
Answer: 14 µM (active)

Question: What about the EC50 [3] of the same molecule?
Answer: > 99 µM (inactive)

Question: Which results are given for `CC1=CC(C)(C)Nc2ccc(OC(=O)CCN3C(=O)c4ccccc4C3=O)cc21`?
Answer: EC50 (HEK293 [4]): > 59.6 µM (inactive); EC50 [5]: 6.3 µM (active); EC50 (HEK293 [6]): > 59.6 µM (inactive); EC50 [7]: 10.8 µM (active)

Question: Which EC50 [8] does the source give for `O=C(Oc1c(Cl)cc(Cl)c2cccnc12)c1cccs1` here?
Answer: > 285 µM (inactive)

Question: And the EC50 [9]?
Answer: 0.122 µM (active)

Question: What about the EC50 [10] of the same molecule?
Answer: 27.3 µM (active)

Question: And the EC50 [11]?
Answer: 9.43 µM (active)

Question: And the CC50 (Vero)?
Answer: 16.5 µM (active)

Question: And the AC50 [12]?
Answer: 3.28 µM (active)

Question: What about the EC50 [13] of the same molecule?
Answer: 2.41 µM (active)

Question: And the EC50 [14]?
Answer: > 180 µM (inactive)

Question: And the AC50 (INS1)?
Answer: 8.83 µM (active)

Question: What about the CC50 [15] of the same molecule?
Answer: 17.3 µM (active)

Question: And the EC50 [16]?
Answer: 16 µM (active)

Question: What about the EC50 (Streptococcus) of the same molecule?
Answer: 1.27 µM (active)

Question: And the EC50 [17]?
Answer: 1.47 µM (active)

Question: Which results are given for `CC(C)(C)c1ccc(-c2noc(CCC(=O)NC3CCCCC3)n2)cc1`?
Answer: IC50 (HEK293 [18]): > 80 µM (inactive); IC50 (HEK293 [19]): 2.68 µM (active); IC50 (Jurkat [20]): 19.9 µM (active)

Question: What does the source list for `C=C1C(=O)O[C@@H]2C[C@@H](C)[C@@H]3C=CC(=O)[C@@]3(C)[C@@H](OC(C)=O)[C@H]12` [ANGUSTIBALIN]?
Answer: IC50 [21]: 22 µM (not active); EC50 [22]: 7.68 µM (not active); IC50 [23]: > 80 µM (inactive); IC50 [24]: 4.49 µM (active); AC50 (Paired box protein Pax-8): 0.742 µM (active); AC50 (INS1): 2.13 µM (active); EC50 (Beta-galactosidase): > 40 µM (inactive); IC50 (Jurkat [25]): 0.99 µM (active)
